Assay results published in patent publication US20220071939A1, “COMPOUNDS AND METHODS FOR THE TREATMENT OF POLYCYSTIC KIDNEY DISEASE (PKD)” (Resilio Therapeutics, LLC, priority 2018, published 2022).
Entries after “also recorded” stand apart in the source; their conditions may differ.

What was measured:
[1] = test system: human renal mixed epithelial cells in 2D cultures from Autosomal Dominant Polycystic Kidney Disease (ADPKD) donors; experiment: 2D cellular toxicity assay (viability by ATP release, Cell TiterGlo kit); format: cell-based
Protocol: (§1) FIG. 1 is a plot of cell viability as a function of difluoromethyl omithine (DFMO) concentration, showing the viability of primary ADPKD cells in 2D culture as measured by ATP release using Cell TiterGlo kit. Studies were performed on DFMO, the metabolic product of DFMO-prodrugs, in primary cell cultures of 2 dimensional (2D) cellular toxicity assays, 3 dimensional (3D) cyst formation assays and 3D tubulogenesis assays. DFMO was less than 10% toxic (90% viable) to human renal mixed epithelial cells in 2D cultures from Autosomal Dominant Polycystic Kidney Disease (ADPKD) donors up to 10 mM DFMO concentration as measured using a Cell Titer Go kit (FIG. 1). In the 3D cyst cultures, a population of mixed cells from a surgically resected cyst from a donor ADPKD kidney is combined with human kidney fibroblasts to grow cysts in a proprietary media (Discovery BioMed, Inc) that contains conditioned media from kidney fibroblasts and a Biogel matrix (DiscoveryBioMed). Using light microscopy to count cysts, the number of cysts formed in 3D cultures decreased in a dose-dependent fashion to 50% of controls at 10 mM DFMO (FIG. 2).

[2] = test system: cysts formed from ADPKD donor cells in 3D cultures; experiment: 3D cyst formation assay (cyst number and cyst size by light microscopy); format: cell-based, human; settings: 3D culture
Protocol: as §1, with “Studies” for “FIG. 1 is a plot of cell viability as a function of difluoromethyl omithine (DFMO) concentration, showing the viability of primary ADPKD cells in 2D culture as measured by ATP release using Cell TiterGlo kit. Studies”, “2). Photomicrographs of cysts formed from ADPKD donor cells in 3D cultures show a time dependent change in cyst size.” for “2).”

[3] = test system: normal human kidney (NHK) cells in 3D cultures; experiment: 3D tubulogenesis assay; format: cell-based; settings: 10 mM DFMO
Protocol: As a further proof of the potential utility of DFMO/DFMO-prodrugs in ADPKD patients, we also performed a tubulogenesis assay with normal human kidney cells in 3D cultures. Vehicle treated normal human kidney (NHK) cells form tubules by Day 3 in 3D cultures (FIG. 5) as do 10 mM DFMO-treated NHK cells, which also form tubules under the same conditions (FIG. 6).

[4] = 2D culture, up to 10 mM DFMO, Cell Titer Glo (ATP release), FIG. 1

difluoromethylornithine [DFMO]
cell viability [1, 4]: 90%
toxicity to ADPKD cells [1, 4]: less than 10%
cell killing in 2D cultures ([1]; ADPKD cells, 2D cultures): not killed
cyst size over time ([2]; 10 mM DFMO, Day 0 to Day 4, FIG. 4): decreases with time; also recorded: slight increase on Day 1 followed by a steady decrease in cyst size by Day 4 when the cyst is smaller than on Day 0
number of cysts formed, relative to controls ([2]; 10 mM DFMO, FIG. 2): 50 % of controls
number of cysts versus DFMO concentration ([2]; FIG. 2): decrease in a dose-dependent manner
tubule formation ([3]; Day 3, FIG. 6): form tubules
tubule numbers, maturation and elongation versus vehicle ([3]; visual comparison over time): appear similar
